US12145920B2, “Lanthionine c-like protein 2 ligands, cells prepared therewith, and therapies using same” (NImmune Biopharma, Inc., priority 2019, dated 2024)
“Also recorded” adds a separate entry of the source.

Key:
CD4+ T cells = experiment: Immune effects in CD4+ splenocytes, flow cytometry (wild type); assay type: cell-based, C57BL/6 mice
Text: (§1) Cell culture. Spleens were excised from C57BL/6 mice and assessed in wild-type and LANCL2 deficient states. Spleens were crushed between the frosted ends of microscope slides and filtered to provide a cellular suspension. Red blood cells were lysed through hypotonic lysis. Remaining cells were washed and filtered. CD4+ T cells were enriched within the suspension using magnetic sorting based negative selection. Cells were collected and plated within 96 well plates coated with anti-CD3 and cultured in the presence of BT-63 at 0, 0.1, 1 and 10 micromolar or BT-104A, BT-104B, or BT-104C at 0.1 micromolar for 48 h. During the last 6 h of culture, cells were stimulated with phorbol 12-myristate-13-acetate (PMA) and ionomycin.
(§2) Immunological analysis. Cells were collected from 96 well plates and stained with a cocktail of antibodies for immunophenotyping by flow cytometry. Culture supernatant was collected and assayed for cytokine concentrations by cytometric bead array. Data was captured on a BD FACS Celesta and analyzed using FacsDiva.

[1] = tested on: LANCL2 deficient CD4+ T cells; experiment: Immune effects in CD4+ splenocytes, flow cytometry (LANCL2 deficient); assay type: cell-based, C57BL/6 mice; settings: in the absence of LANCL2, 0.1, 1 and 10 μM
Text: as §1, §2

[2] = tested on: Non-obese diabetic (NOD) ShiLt mice; experiment: NOD mouse model of T1D; assay type: in vivo
Experimental: NOD model. Non-obese diabetic (NOD) ShiLt mice were used in this study. NOD mice have numerous genetic mutations that enable the spontaneous onset of hyperglycemia and pancreatic pathologies associated with T1D. Mice entered into the experiment at 9 weeks of age and were monitored for a […]. Mice were treated daily with vehicle, 10 mg/kg BT-63, or 20 mg/kg BT-63 by oral gavage. Once weekly blood samples were collected from the tail vein to be tested for glucose concentration by glucometer. Mice were euthanized after 12 weeks for collection of blood and organs for immunological testing.
(§3) Treatment administration. BT-63 was prepared within a 0.5% methylcellulose (12-15 cP) solution. Dosage used was 10 or 20 mg/kg delivered once daily. Mice were weighed on a weekly basis to update dosage formulation. Dosage was calculated based off mean body weights for each gender. Oral dosage was delivered by orogastric gavage of dosage in 0.2 mL volume.
Immunological analysis. Blood was collected by cardiac puncture into heparinized tube. Plasma was separated following centrifugation and assayed by Luminex for cytokine and hormones related to the development of T1D. Spleens were excised, crushed and filtered to provide a cellular suspension. Red blood cells were lysed. Cells were labeled with mixtures of extracellular (CD45, CD3, CD4, CD8, CD19, NK1.1, CD25, F4/80, CD11b, Gr1, CX3CR1, CD64) and intracellular (Tbet, BCL6, FOXP3, IFNγ, IL21, IL10) antibodies in a sequential live staining in 96-well plates in preparation for flow cytometry. Data was captured on a BD FACS Celesta and analyzed using FacsDiva.

MDR1a-/- mice = experiment: MDR1a-/- chronic model of IBD; assay type: in vivo
Experimental: as §3, with “MDR1a−/− model. Mice deficient in MDR1a spontaneously develop colitis. MDR1a−/− began receiving BT-63 treatment (oral, 20 mg/kg) at 6 weeks of age and continued treatment until 10 weeks of age. Mice were weighed and scored weekly. Treatment” for “Treatment”, “was” for “was 10 or”, “volume. Flow Cytometry. […]” for “volume.”
collagenase (300U/mL) and DNase (50U/mL) for digestion. Tissues were digested for 60 minutes under stirring at 37° C. Resultant cellular suspensions were filtered through 100 μm strainers, centrifuged (300×g, 8 min), and washed in fresh RPMI. Following filtration of the resulting single cell suspensions, immune cells were purified by Percoll gradient of cell-containing 40% Percoll overlayed onto 70% Percoll solution. After centrifugation, interphase was collected and washed to obtain enriched colonic lamina propria cell fractions. Cells were labeled with mixtures of extracellular (CD45, CD3, CD4, CD8, CD19, NK1.1, CD25, F4/80, CD11b, Gr1, CX3CR1, CD64) and intracellular (Tbet, RORyT, FOXP3, IFNγ, IL17, IL10) antibodies in a sequential live staining in 96-well plates. Data was acquired using a FACS Celesta flow cytometer with FACSDiva software.

NZB/W F1 mice = experiment: NZB/W F1 genetic mouse model of SLE (BT-63); assay type: in vivo
Experimental: NZB/W F 1 model. Twenty-four-week-old, female NZB/W F1 mice were randomized into vehicle or BT-63-treated arms based on baseline urine protein levels (n=10). BT-63 was orally administered daily at 20 mg/kg for 12 weeks. Mice were weighed on a weekly basis to update dosage formulation. Dosage was calculated based off mean body weights.
Immunological analysis. Blood was collected by cardiac puncture into EDTA tube. Plasma was separated following centrifugation and assayed by ELISA for anti-dsDNA antibodies and IFN-α. Urine was collected to assay for protein content to test for kidney function. Spleens were excised, crushed and filtered to provide a cellular suspension. Red blood cells were lysed. Cells were labeled with mixtures of extracellular (CD45, CD3, CD4, CD8, CD19, CD138, CD25, MHCII, CD11b, CD11c, CXCR3, IgD, IgM) and intracellular (BCL6, FOXP3, IL21, IL6, IL10) antibodies in a sequential live staining in 96-well plates in preparation for flow cytometry. Data was captured on a BD FACS Celesta and analyzed using FacsDiva.

[3] = wild-type cells, 0.1, 1 and 10 μM, 48 h
[4] = 21 weeks of age, oral 10 or 20 mg/kg
[5] = spleen, 21 weeks of age, oral 10 or 20 mg/kg
[6] = colonic lamina propria, four weeks oral 20 mg/kg
[7] = spleen, four weeks oral 20 mg/kg
[8] = 36 weeks of age (12 weeks of treatment), 20 mg/kg
[9] = spleen, 12 weeks oral 20 mg/kg, relative to vehicle

O=C(CN1CCN(C(=O)c2cccc(-c3nc4ccccc4[nH]3)n2)CC1)c1ccccc1 [BT-63, 2-(4-(6-(1H-benzo[d]imidazol-2-yl)picolinoyl)piperazin-1-yl)-1-phenylethanone] was tested, and the “FOXP3+ CD4+ T cells” value (CD4+ T cells; 0.1, 1 and 10 micromolar, FIG. 4A) was “significant increase”, the “proportions of IFNγ+ CD4+ T cells” value (CD4+ T cells; [3]) was “reduced; also recorded: significant decrease” and the “proportions of IL10+ FOXP3+ CD4+ T cells” value (CD4+ T cells; [3]) was “increased”. For the same compound, the “proportions of TNFa-producing CD4+ T cells” value (CD4+ T cells; [3]) was “reduced”, the “effects on IFNγ+, TNFa+ and IL10+ FOXP3+ CD4+ T cells” value [1] was “lost” and the “reduction of percentage of hyperglycemic mice” value ([2]; 20 mg/kg group compared to vehicle) was 50%. The HbA1c ([2]; 21 weeks of age, 10 mg/kg) was “reduced”, the HbA1c ([2]; 21 weeks of age, 20 mg/kg) was “reduced” and the “plasma MCP-1” value [2, 4] was “reduced”. The “plasma TNF” value [2, 4] was “reduced”, the “plasma levels of C-peptide” value [2, 4] was “increased” and the “plasma levels of insulin” value [2, 4] was “increased”. For the same compound, the blood glucose levels ([2]; NOD mice, oral daily, from 19 weeks of age through end) was “significantly lower”, the “CD4+IL10+ to CD4+IFNγ+ ratio” value [2, 5] was “increased” and the “PD1+ CD4+ T cells” value [2, 5] was “increasing”. The “T follicular helper (Tfh) cells (BCL6+IL21+)” value [2, 5] was “decreasing”, the “proportions of regulatory CD4+ CD25+ T cells” value (MDR1a-/- mice; colon, four weeks oral 20 mg/kg) was “increased” and the “proportions of Th1” value (MDR1a-/- mice; [6]) was “reduces”. The “proportions of Th17” value (MDR1a-/- mice; [6]) was “reduces”, the proportions of neutrophils (MDR1a-/- mice; [6]) was “reduces” and the “splenic CD25+ Tregs” value (MDR1a-/- mice; [7]) was “increased”. For the same compound, the “splenic Th1 cells” value (MDR1a-/- mice; [7]) was “decreased”, the “maximal observed reduction of disease activity” value (MDR1a-/- mice; week four of treatment, oral 20 mg/kg) was 90% and the “body weight change from baseline (weight loss)” value (NZB/W F1 mice; 12 weeks oral 20 mg/kg) was “protected mice from weight loss”. The proteinuria score (NZB/W F1 mice; 12 weeks oral 20 mg/kg, from baseline) was “prevented worsening”, the “plasma IFN-α levels” value (NZB/W F1 mice; [8]) was “reduced” and the “plasma anti-dsDNA levels” value (NZB/W F1 mice; [8]) was “reduced”. For the same compound, the “CXCR3+ plasma cells” value (NZB/W F1 mice; spleen, 12 weeks oral 20 mg/kg) was “moderate reduction”, the “follicular B cells” value (NZB/W F1 mice; spleen, 12 weeks oral 20 mg/kg) was “moderate reduction” and the plasma cells (NZB/W F1 mice; spleen, 12 weeks oral 20 mg/kg) was “moderate reduction”. For the same compound, the “CD25+ FOXP3+ regulatory CD4+ T cells” value (NZB/W F1 mice; [9]) was “greater reductions”, the “IL6+ myeloid cells” value (NZB/W F1 mice; [9]) was “greater reductions” and the “IL21+ BCL6+ follicular helper T cells” value (NZB/W F1 mice; [9]) was “greater reductions”.
